ChEMBL document CHEMBL3272333, “Synthesis and biologic distribution of radioiodinated beta-adrenergic antagonists” (J Med Chem, 1978)
One block for each molecule: values may come before it.

Key:
Set-up in all cases: dose 0.5-1 mg/kg, route intravenous
[1] = test system: Liver; test: Biodistribution in Sprague-Dawley rat liver at 0.5 to 1 mg/kg, iv after 15 mins by gamma-well counting analysis; assay type: ADME, organism-based; conditions: in vivo, 0.25 h
[2] = test system: Spleen; test: Biodistribution in Sprague-Dawley rat spleen at 0.5 to 1 mg/kg, iv after 15 mins by gamma-well counting analysis; assay type: ADME, organism-based; conditions: in vivo, 0.25 h
[3] = test system: Lung; test: Biodistribution in Sprague-Dawley rat lung at 0.5 to 1 mg/kg, iv after 15 mins by gamma-well counting analysis; assay type: ADME, organism-based; conditions: in vivo, 0.25 h
[4] = test system: Heart; test: Biodistribution in Sprague-Dawley rat heart at 0.5 to 1 mg/kg, iv after 15 mins by gamma-well counting analysis; assay type: ADME, organism-based; conditions: in vivo, 0.25 h
[5] = test system: Kidney; test: Biodistribution in Sprague-Dawley rat kidney at 0.5 to 1 mg/kg, iv after 15 mins by gamma-well counting analysis; assay type: ADME, organism-based; conditions: in vivo, 0.25 h
[6] = test system: Muscle tissue; test: Biodistribution in Sprague-Dawley rat muscle at 0.5 to 1 mg/kg, iv after 15 mins by gamma-well counting analysis; assay type: ADME, organism-based; conditions: in vivo, 0.25 h
[7] = test system: Bone; test: Biodistribution in Sprague-Dawley rat bone at 0.5 to 1 mg/kg, iv after 15 mins by gamma-well counting analysis; assay type: ADME, organism-based, Bone element; conditions: in vivo, 0.25 h
[8] = test system: Blood; test: Biodistribution in Sprague-Dawley rat blood at 0.5 to 1 mg/kg, iv after 15 mins by gamma-well counting analysis; assay type: ADME, organism-based; conditions: in vivo, 0.25 h
[9] = test system: Thyroid gland; test: Biodistribution in Sprague-Dawley rat thyroid at 0.5 to 1 mg/kg, iv after 15 mins by gamma-well counting analysis; assay type: ADME, organism-based; conditions: in vivo, 0.25 h
[10] = test system: Liver; test: Biodistribution in Sprague-Dawley rat liver at 0.5 to 1 mg/kg, iv after 1 hr by gamma-well counting analysis; assay type: ADME, organism-based; conditions: in vivo
[11] = test system: Spleen; test: Biodistribution in Sprague-Dawley rat spleen at 0.5 to 1 mg/kg, iv after 1 hr by gamma-well counting analysis; assay type: ADME, organism-based; conditions: in vivo
[12] = test system: Lung; test: Biodistribution in Sprague-Dawley rat lung at 0.5 to 1 mg/kg, iv after 1 hr by gamma-well counting analysis; assay type: ADME, organism-based; conditions: in vivo
[13] = test system: Heart; test: Biodistribution in Sprague-Dawley rat heart at 0.5 to 1 mg/kg, iv after 1 hr by gamma-well counting analysis; assay type: ADME, organism-based; conditions: in vivo
[14] = test system: Kidney; test: Biodistribution in Sprague-Dawley rat kidney at 0.5 to 1 mg/kg, iv after 1 hr by gamma-well counting analysis; assay type: ADME, organism-based; conditions: in vivo
[15] = test system: Muscle tissue; test: Biodistribution in Sprague-Dawley rat muscle at 0.5 to 1 mg/kg, iv after 1 hr by gamma-well counting analysis; assay type: ADME, organism-based; conditions: in vivo
[16] = test system: Bone; test: Biodistribution in Sprague-Dawley rat bone at 0.5 to 1 mg/kg, iv after 1 hr by gamma-well counting analysis; assay type: ADME, organism-based, Bone element; conditions: in vivo
[17] = test system: Blood; test: Biodistribution in Sprague-Dawley rat blood at 0.5 to 1 mg/kg, iv after 1 hr by gamma-well counting analysis; assay type: ADME, organism-based; conditions: in vivo
[18] = test system: Thyroid gland; test: Biodistribution in Sprague-Dawley rat thyroid at 0.5 to 1 mg/kg, iv after 1 hr by gamma-well counting analysis; assay type: ADME, organism-based; conditions: in vivo
[19] = test system: Liver; test: Biodistribution in Sprague-Dawley rat liver assessed per organ at 0.5 to 1 mg/kg, iv after 15 mins by gamma-well counting analysis; assay type: ADME, organism-based; conditions: in vivo, 0.25 h
[20] = test system: Spleen; test: Biodistribution in Sprague-Dawley rat spleen assessed per organ at 0.5 to 1 mg/kg, iv after 15 mins by gamma-well counting analysis; assay type: ADME, organism-based; conditions: in vivo, 0.25 h
[21] = test system: Lung; test: Biodistribution in Sprague-Dawley rat lung assessed per organ at 0.5 to 1 mg/kg, iv after 15 mins by gamma-well counting analysis; assay type: ADME, organism-based; conditions: in vivo, 0.25 h
[22] = test system: Heart; test: Biodistribution in Sprague-Dawley rat heart assessed per organ at 0.5 to 1 mg/kg, iv after 15 mins by gamma-well counting analysis; assay type: ADME, organism-based; conditions: in vivo, 0.25 h
[23] = test system: Stomach; test: Biodistribution in Sprague-Dawley rat stomach assessed per organ at 0.5 to 1 mg/kg, iv after 15 mins by gamma-well counting analysis; assay type: ADME, organism-based; conditions: in vivo, 0.25 h
[24] = test system: Kidney; test: Biodistribution in Sprague-Dawley rat kidney assessed per organ at 0.5 to 1 mg/kg, iv after 15 mins by gamma-well counting analysis; assay type: ADME, organism-based; conditions: in vivo, 0.25 h
[25] = test system: Small intestine; test: Biodistribution in Sprague-Dawley rat small intestine assessed per organ at 0.5 to 1 mg/kg, iv after 15 mins by gamma-well counting analysis; assay type: ADME, organism-based; conditions: in vivo, 0.25 h
[26] = test system: Large intestine; test: Biodistribution in Sprague-Dawley rat large intestine assessed per organ at 0.5 to 1 mg/kg, iv after 15 mins by gamma-well counting analysis; assay type: ADME, organism-based; conditions: in vivo, 0.25 h
[27] = test system: Muscle tissue; test: Biodistribution in Sprague-Dawley rat muscle assessed per organ at 0.5 to 1 mg/kg, iv after 15 mins by gamma-well counting analysis; assay type: ADME, organism-based; conditions: in vivo, 0.25 h
[28] = Biodistribution in Sprague-Dawley rat fat and fur assessed per organ at 0.5 to 1 mg/kg, iv after 15 mins by gamma-well counting analysis; assay type: ADME, organism-based, Adipose tissue; conditions: in vivo, 0.25 h
[29] = test system: Bone; test: Biodistribution in Sprague-Dawley rat bone assessed per organ at 0.5 to 1 mg/kg, iv after 15 mins by gamma-well counting analysis; assay type: ADME, organism-based, Bone element; conditions: in vivo, 0.25 h
[30] = test system: Blood; test: Biodistribution in Sprague-Dawley rat blood assessed per organ at 0.5 to 1 mg/kg, iv after 15 mins by gamma-well counting analysis; assay type: ADME, organism-based; conditions: in vivo, 0.25 h
[31] = test system: Thyroid gland; test: Biodistribution in Sprague-Dawley rat thyroid assessed per organ at 0.5 to 1 mg/kg, iv after 15 mins by gamma-well counting analysis; assay type: ADME, organism-based; conditions: in vivo, 0.25 h
[32] = test system: Liver; test: Biodistribution in Sprague-Dawley rat liver assessed per organ at 0.5 to 1 mg/kg, iv after 1 hr by gamma-well counting analysis; assay type: ADME, organism-based; conditions: in vivo
[33] = test system: Spleen; test: Biodistribution in Sprague-Dawley rat spleen assessed per organ at 0.5 to 1 mg/kg, iv after 1 hr by gamma-well counting analysis; assay type: ADME, organism-based; conditions: in vivo
[34] = test system: Lung; test: Biodistribution in Sprague-Dawley rat lung assessed per organ at 0.5 to 1 mg/kg, iv after 1 hr by gamma-well counting analysis; assay type: ADME, organism-based; conditions: in vivo
[35] = test system: Heart; test: Biodistribution in Sprague-Dawley rat heart assessed per organ at 0.5 to 1 mg/kg, iv after 1 hr by gamma-well counting analysis; assay type: ADME, organism-based; conditions: in vivo
[36] = test system: Stomach; test: Biodistribution in Sprague-Dawley rat stomach assessed per organ at 0.5 to 1 mg/kg, iv after 1 hr by gamma-well counting analysis; assay type: ADME, organism-based; conditions: in vivo
[37] = test system: Kidney; test: Biodistribution in Sprague-Dawley rat kidney assessed per organ at 0.5 to 1 mg/kg, iv after 1 hr by gamma-well counting analysis; assay type: ADME, organism-based; conditions: in vivo
[38] = test system: Small intestine; test: Biodistribution in Sprague-Dawley rat small intestine assessed per organ at 0.5 to 1 mg/kg, iv after 1 hr by gamma-well counting analysis; assay type: ADME, organism-based; conditions: in vivo
[39] = test system: Large intestine; test: Biodistribution in Sprague-Dawley rat large intestine assessed per organ at 0.5 to 1 mg/kg, iv after 1 hr by gamma-well counting analysis; assay type: ADME, organism-based; conditions: in vivo
[40] = test system: Muscle tissue; test: Biodistribution in Sprague-Dawley rat muscle assessed per organ at 0.5 to 1 mg/kg, iv after 1 hr by gamma-well counting analysis; assay type: ADME, organism-based; conditions: in vivo
[41] = Biodistribution in Sprague-Dawley rat fat and fur assessed per organ at 0.5 to 1 mg/kg, iv after 1 hr by gamma-well counting analysis; assay type: ADME, organism-based, Adipose tissue; conditions: in vivo
[42] = test system: Bone; test: Biodistribution in Sprague-Dawley rat bone assessed per organ at 0.5 to 1 mg/kg, iv after 1 hr by gamma-well counting analysis; assay type: ADME, organism-based, Bone element; conditions: in vivo
[43] = test system: Blood; test: Biodistribution in Sprague-Dawley rat blood assessed per organ at 0.5 to 1 mg/kg, iv after 1 hr by gamma-well counting analysis; assay type: ADME, organism-based; conditions: in vivo
[44] = test system: Thyroid gland; test: Biodistribution in Sprague-Dawley rat thyroid assessed per organ at 0.5 to 1 mg/kg, iv after 1 hr by gamma-well counting analysis; assay type: ADME, organism-based; conditions: in vivo

Drug uptake [1]: 0.74 % ID/g
Drug uptake [2]: 1.15 % ID/g
Drug uptake [3]: 2.58 % ID/g
Drug uptake [4]: 0.35 % ID/g
Drug uptake [5]: 0.98 % ID/g
Drug uptake [6]: 0.2 % ID/g
Drug uptake [7]: 0.16 % ID/g
Drug uptake [8]: 0.12 % ID/g
Drug uptake [9]: 2.76 % ID/g
Drug uptake [10]: 0.66 % ID/g
Drug uptake [11]: 0.6 % ID/g
Drug uptake [12]: 2.01 % ID/g
Drug uptake [13]: 0.19 % ID/g
Drug uptake [14]: 0.76 % ID/g
Drug uptake [15]: 0.1 % ID/g
Drug uptake [16]: 0.12 % ID/g
Drug uptake [17]: 0.1 % ID/g
Drug uptake [18]: 6.85 % ID/g
Drug uptake [19]: 7.3 %ID
Drug uptake [20]: 0.52 %ID
Drug uptake [21]: 3.9 %ID
Drug uptake [22]: 0.26 %ID
Drug uptake [23]: 1.99 %ID
Drug uptake [24]: 1.83 %ID
Drug uptake [25]: 12.98 %ID
Drug uptake [26]: 1.41 %ID
Drug uptake [27]: 19.67 %ID
Drug uptake [28]: 8.82 %ID
Drug uptake [29]: 2.52 %ID
Drug uptake [30]: 1.87 %ID
Drug uptake [31]: 0.06 %ID
Drug uptake [32]: 7.08 %ID
Drug uptake [33]: 0.4 %ID
Drug uptake [34]: 2.78 %ID
Drug uptake [35]: 0.16 %ID
Drug uptake [36]: 2.24 %ID
Drug uptake [37]: 1.58 %ID
Drug uptake [38]: 16.23 %ID
Drug uptake [39]: 0.91 %ID
Drug uptake [40]: 10.71 %ID
Drug uptake [41]: 9.69 %ID
Drug uptake [42]: 1.84 %ID
Drug uptake [43]: 1.44 %ID
Drug uptake [44]: 0.14 %ID
SMILES: CC(C)NCC(O)COc1ccc([125I])c2ccccc12 (racemic)

Drug uptake [1]: 2.4 % ID/g
Drug uptake [2]: 0.97 % ID/g
Drug uptake [3]: 1.63 % ID/g
Drug uptake [4]: 0.99 % ID/g
Drug uptake [5]: 2.8 % ID/g
Drug uptake [6]: 0.22 % ID/g
Drug uptake [7]: 0.22 % ID/g
Drug uptake [8]: 0.09 % ID/g
Drug uptake [9]: 6.06 % ID/g
Drug uptake [10]: 1.59 % ID/g
Drug uptake [11]: 0.6 % ID/g
Drug uptake [12]: 1.27 % ID/g
Drug uptake [13]: 0.58 % ID/g
Drug uptake [14]: 1.16 % ID/g
Drug uptake [15]: 0.2 % ID/g
Drug uptake [16]: 0.17 % ID/g
Drug uptake [17]: 0.06 % ID/g
Drug uptake [19]: 20.19 %ID
Drug uptake [20]: 0.52 %ID
Drug uptake [21]: 1.77 %ID
Drug uptake [22]: 0.66 %ID
Drug uptake [23]: 1.26 %ID
Drug uptake [24]: 4.38 %ID
Drug uptake [25]: 9.39 %ID
Drug uptake [26]: 2.42 %ID
Drug uptake [27]: 16.64 %ID
Drug uptake [28]: 7.66 %ID
Drug uptake [29]: 2.49 %ID
Drug uptake [30]: 1 %ID
Drug uptake [31]: 0.12 %ID
Drug uptake [32]: 12.11 %ID
Drug uptake [33]: 0.31 %ID
Drug uptake [34]: 1.41 %ID
Drug uptake [35]: 0.31 %ID
Drug uptake [36]: 1.19 %ID
Drug uptake [37]: 1.83 %ID
Drug uptake [38]: 15.4 %ID
Drug uptake [39]: 1.01 %ID
Drug uptake [40]: 14.87 %ID
Drug uptake [41]: 6.73 %ID
Drug uptake [42]: 1.94 %ID
Drug uptake [43]: 0.74 %ID
Drug uptake [44]: 0.17 %ID
SMILES: CC(=O)c1cc(NC(=O)c2cccc([125I])c2)ccc1OCC(O)CNC(C)C (racemic)
